Measurements from PMC8699473, “An Easily Expandable Multi-Drug LC-MS Assay for the Simultaneous Quantification of 57 Oral Antitumor Drugs in Human Plasma” (Cancers, 2021).
Like-named read-outs stand apart in the source and are kept apart here.

Assay: Autosampler stability of ready for injection samples
Assay type: physicochemical, human

Compound	Autosampler (24h, 4°C) Accuracy [%] (validation standard 2xLLOV)	Autosampler (72h, 4°C) Accuracy [%] (validation standard 2xLLOV)	Autosampler (24h, 4°C) Accuracy [%] (validation standard LLOV)	Autosampler (72h, 4°C) Accuracy [%] (validation standard LLOV)	Autosampler (24h, 4°C) Accuracy [%] (validation standard MOV)	Autosampler (72h, 4°C) Accuracy [%] (validation standard MOV)	Autosampler (24h, 4°C) Accuracy [%] (validation standard ULOV)	Autosampler (72h, 4°C) Accuracy [%] (validation standard ULOV)	Autosampler (24h, 4°C) Accuracy [%]	Autosampler (72h, 4°C) Accuracy [%]
NC(=O)c1cccc2cn(-c3ccc([C@@H]4CCCNC4)cc3)nc12 [Niraparib]	103.0	99.6	96.8	96.3	104.6	100.5	100.8	100.1		
Cc1ccc(NC(=O)c2ccc(CN3CCN(C)CC3)cc2)cc1Nc1nccc(-c2cccnc2)n1 [Imatinib]	115.2	116.1	102.3	103.7	108.3	101.7	95.3	95.2		
Cn1cnc2c(F)c(Nc3ccc(Br)cc3F)c(C(=O)NOCCO)cc21 [Binimetinib]	104.7	101.6	103.1	98.1	105.0	95.8	102.1	102.4		
COc1cc2nccc(Oc3ccc(NC(=O)C4(C(=O)Nc5ccc(F)cc5)CC4)cc3)c2cc1OC [Cabozantinib]		103.4	92.0	94.0	105.6	103.5	98.7			
Cc1cc(Nc2ncc(Cl)c(Nc3ccccc3S(=O)(=O)C(C)C)n2)c(OC(C)C)cc1C1CCNCC1 [Ceritinib]	95.1	100.1	97.1	98.1	100.8	103.5	101.3	106.5		
O=C(c1ccc(F)c(F)c1Nc1ccc(I)cc1F)N1CC(O)([C@@H]2CCCCN2)C1 [Cobimetinib]	100.3	100.8	94.6	93.0	105.2	103.1	102.5	107.2		
CNC(=O)c1cc(Oc2ccc(NC(=O)Nc3ccc(Cl)c(C(F)(F)F)c3)c(F)c2)ccn1 [Regorafenib]	101.6	101.1	107.3	102.1	101.4	104.4	104.2	99.3		
COc1cc2ncnc(Nc3ccc(F)c(Cl)c3)c2cc1NC(=O)/C=C/CN1CCCCC1 [Dacomitinib]	102.5	99.5	93.3	92.3	104.5	100.5	98.4	98.0		
O=C1CN2Cc3c(ccc(Cl)c3Cl)N=C2N1 [Anagrelide]	113.2	106.1	111.7	110.5	104.6	96.8	101.8	98.2		
C#Cc1cccc(Nc2ncnc3cc(OCCOC)c(OCCOC)cc23)c1 [Erlotinib]	102.3	98.1		103.9	103.3	98.3	103.4	102.9		
CCN(CC)CCNC(=O)c1c(C)[nH]c(/C=C2\C(=O)Nc3ccc(F)cc32)c1C [Sunitinib]	113.8	111.0	113.8	119.4	111.8	114.3	113.4	119.5		
COc1cc(N2CCC(N3CCN(C)CC3)CC2)ccc1Nc1ncc(Cl)c(Nc2ccccc2P(C)(C)=O)n1 [Brigatinib]	96.4	91.9	90.7	85.3	104.4	95.5	96.1	96.6		
Cc1ccc(Nc2nccc(N(C)c3ccc4c(C)n(C)nc4c3)n2)cc1S(N)(=O)=O [Pazopanib]	103.7	99.4	101.3	99.0	101.7	97.9	99.8	99.0		
CC(=O)Nc1cccc(-n2c(=O)n(C3CC3)c(=O)c3c(Nc4ccc(I)cc4F)n(C)c(=O)c(C)c32)c1 [Trametinib]	105.8	101.8	101.7	100.1	103.1	103.5	97.7	97.0		
CS(=O)(=O)CCNCc1ccc(-c2ccc3ncnc(Nc4ccc(OCc5cccc(F)c5)c(Cl)c4)c3c2)o1 [Lapatinib]	99.4	102.1	92.7	94.4	103.2	101.5	99.7	98.8		
COC(=O)N[C@@H](C)CNc1nccc(-c2cn(C(C)C)nc2-c2cc(Cl)cc(NS(C)(=O)=O)c2F)n1 [Encorafenib]	102.4	102.6	87.7	98.2	112.5	110.5	100.5	102.4		
CNC(=O)c1ccc(N2C(=S)N(c3cnc(C#N)c(C(F)(F)F)c3)C(=O)C23CCC3)cc1F [Apalutamide]	102.1	105.1	97.2	102.8	106.8	106.0	102.6	106.5		
COc1cc2ncnc(Nc3ccc(F)c(Cl)c3)c2cc1OCCCN1CCOCC1 [Gefitinib]	102.3	98.5	91.6	90.7	105.6	102.2	96.7	97.0		
Cc1[nH]c2ccccc2c1CCNCc1ccc(/C=C/C(=O)NO)cc1 [Panobinostat]	100.3	95.4	83.8	73.7	102.4	101.0	95.4	101.1		
Nc1cccc2c1C(=O)N(C1CCC(=O)NC1=O)C2=O (centres unmarked) [Pomalidomide]	104.1	103.5	104.9	96.5	104.5	97.7	100.5	97.9		
Nc1cccc2c1CN(C1CCC(=O)NC1=O)C2=O (centres unmarked) [Lenalidomide]	117.5	109.8	80.7	95.6	107.0	100.0	100.8	98.9		
Cc1cn(-c2cc(NC(=O)c3ccc(C)c(Nc4nccc(-c5cccnc5)n4)c3)cc(C(F)(F)F)c2)cn1 [Nilotinib]	97.8	101.2	88.1	92.6	102.7	104.0	100.3	102.0		
CN(C)C(=O)c1cc2cnc(Nc3ccc(N4CCNCC4)cn3)nc2n1C1CCCC1 [Ribociclib]	103.0		84.0		104.1		89.8			
Cc1ccc(C(=O)Nc2ccc(CN3CCN(C)CC3)c(C(F)(F)F)c2)cc1C#Cc1cnc2cccnn12 [Ponatinib]	106.1	106.1			106.1	102.3	101.9	102.0	104.7	104.7
COc1cc2nccc(Oc3ccc(NC(=O)Nc4cc(C)on4)c(Cl)c3)c2cc1OC [Tivozanib]	101.5	102.7	94.0	95.0	104.6	102.4	101.6	103.1		
O=C(c1cc(Cc2n[nH]c(=O)c3ccccc23)ccc1F)N1CCN(C(=O)C2CC2)CC1 [Olaparib]	103.8	100.5	111.6	111.2	100.5	98.0	103.8	100.5		
C[C@H]1Oc2cc(cnc2N)-c2c(nn(C)c2C#N)CN(C)C(=O)c2ccc(F)cc21 [Lorlatinib]	101.6	99.0	96.7	94.8	102.0	100.8	99.7	99.2		
